# Source: US9694016B2 (Novartis AG, priority 2013, dated 2017)
# Target: b-Raf (V600E) (Homo sapiens (Human), UniProt P15056, V600E)
# Settings: read-out: b-Raf IC-50; AlphaScreen, 60 min pre-incubation, reaction 3 hours at room temperature
# Sequence of b-Raf (V600E) (P15056 whole entry V600E): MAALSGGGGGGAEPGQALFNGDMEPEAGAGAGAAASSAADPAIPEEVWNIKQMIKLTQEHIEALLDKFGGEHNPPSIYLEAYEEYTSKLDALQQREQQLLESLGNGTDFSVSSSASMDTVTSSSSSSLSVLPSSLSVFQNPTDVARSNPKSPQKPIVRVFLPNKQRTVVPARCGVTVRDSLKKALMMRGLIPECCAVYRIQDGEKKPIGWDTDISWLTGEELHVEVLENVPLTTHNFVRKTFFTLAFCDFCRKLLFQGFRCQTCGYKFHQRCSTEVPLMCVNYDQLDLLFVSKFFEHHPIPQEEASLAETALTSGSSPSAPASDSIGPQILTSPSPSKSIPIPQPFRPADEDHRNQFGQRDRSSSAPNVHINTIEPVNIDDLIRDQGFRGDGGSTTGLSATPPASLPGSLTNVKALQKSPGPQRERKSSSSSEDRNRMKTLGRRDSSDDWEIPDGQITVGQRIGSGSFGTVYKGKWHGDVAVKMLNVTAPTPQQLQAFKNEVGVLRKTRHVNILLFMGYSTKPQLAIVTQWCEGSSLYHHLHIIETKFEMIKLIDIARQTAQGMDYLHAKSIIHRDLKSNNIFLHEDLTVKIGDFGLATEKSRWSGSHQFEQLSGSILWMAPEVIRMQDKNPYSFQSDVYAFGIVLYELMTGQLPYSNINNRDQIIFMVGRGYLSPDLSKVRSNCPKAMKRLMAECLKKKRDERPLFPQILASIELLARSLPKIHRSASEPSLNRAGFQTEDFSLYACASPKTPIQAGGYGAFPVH
row,SMILES,IC50 [nM]
1,"Cc1ccc(NC(=O)c2ccnc(C(F)(F)F)c2)cc1-c1cc(N2CCOCC2)nc(NCCO)c1F [Example 1006, N-(3-(3-fluoro-2-((2-hydroxyethyl)amino)-6-morpholinopyridin-4-yl)-4-methylphenyl)-2-(trifluoromethyl)isonicotinamide]",3.97
2,"Cc1ccc(NC(=O)c2ccnc(C(F)F)c2)cc1-c1cc(NCCO)nc(N2CCOCC2)c1F [Example 1009, 2-(difluoromethyl)-N-(3-(3-fluoro-6-((2-hydroxyethyl)amino)-2-morpholinopyridin-4-yl)-4-methylphenyl)isonicotinamide]",14.8
3,"Cc1ccc(NC(=O)c2ccnc(C(C)(C)O)c2)cc1-c1cc(NCCO)nc(N2CCOCC2)c1F [Example 1010, N-(3-(3-fluoro-6-((2-hydroxyethyl)amino)-2-morpholinopyridin-4-yl)-4-methylphenyl)-2-(2-hydroxypropan-2-yl)isonicotinamide]",28.9
4,"Cc1ccc(NC(=O)c2ccnc(C3(C#N)CC3)c2)cc1-c1cc(NCCO)nc(N2CCOCC2)c1F [Example 1011, 2-(1-cyanocyclopropyl)-N-(3-(3-fluoro-6-((2-hydroxyethyl)amino)-2-morpholinopyridin-4-yl)-4-methylphenyl)isonicotinamide]",24.5
5,"Cc1ccc(NC(=O)c2cnnc(C(F)(F)F)c2)cc1-c1cc(NCCO)nc(N2CCOCC2)c1F [Example 1013, N-(3-(3-fluoro-6-((2-hydroxyethyl)amino)-2-morpholinopyridin-4-yl)-4-methylphenyl)-6-(trifluoromethyl)pyridazine-4-carboxamide]",9.79
6,"Cc1ccc(NC(=O)c2cnnc(C(F)(F)F)c2)cc1-c1c(F)c(NCCO)nc(N2CCOCC2)c1F [Example 1015, N-(3-(3,5-difluoro-2-((2-hydroxyethyl)amino)-6-morpholinopyridin-4-yl)-4-methylphenyl)-6-(trifluoromethyl)pyridazine-4-carboxamide]",29.5
7,"Cc1ccc(NC(=O)c2ccnc(C(F)F)c2)cc1-c1cc(N2CCOCC2)nc(NCCO)c1F [Example 1016, 2-(difluoromethyl)-N-(3-(3-fluoro-2-((2-hydroxyethyl)amino)-6-morpholinopyridin-4-yl)-4-methylphenyl)isonicotinamide]",2.27
8,"COc1nnc(-c2cc(C(=O)Nc3ccnc(C(C)(F)F)c3)ccc2C)cc1N1CCOCC1 [Example 1019, N-(2-(1,1-difluoroethyl)pyridin-4-yl)-3-(6-methoxy-5-morpholinopyridazin-3-yl)-4-methylbenzamide]",1.11
9,"CCOc1nnc(-c2cc(C(=O)Nc3ccnc(C(C)(F)F)c3)ccc2C)cc1N1CCOCC1 [Example 1020, N-(2-(1,1-difluoroethyl)pyridin-4-yl)-3-(6-ethoxy-5-morpholinopyridazin-3-yl)-4-methylbenzamide]",7.72
10,"Cc1ccc(NC(=O)c2ccnc(C(F)(F)F)c2)cc1-c1cc(NC[C@@H](C)O)nc(N2CCOCC2)n1 [Example 1023, (R)—N-(3-(6-((2-hydroxypropyl)amino)-2-morpholinopyrimidin-4-yl)-4-methylphenyl)-2-(trifluoromethyl)isonicotinamide]",2.32
11,"Cc1ccc(NC(=O)c2ccnc(C(C)(C)C#N)c2)cc1-c1cc(NC[C@@H](C)O)nc(N2CCOCC2)n1 [Example 1026, (R)-2-(2-cyanopropan-2-yl)-N-(3-(6-((2-hydroxypropyl)amino)-2-morpholinopyrimidin-4-yl)-4-methylphenyl)isonicotinamide]",12.9
12,"CCOc1ccc(-c2cc(NC(=O)c3ccnc(C(C)(C)F)c3)cnc2C)nc1N1CCOCC1 [Example 1027, N-(5-ethoxy-2′-methyl-6-morpholino-[2,3′-bipyridin]-5′-yl)-2-(2-fluoropropan-2-yl)isonicotinamide]",8.48
13,"CCOc1ccc(-c2cc(NC(=O)c3ccnc(C(C)(F)F)c3)cnc2C)nc1N1CCOCC1 [Example 1028, 2-(1,1-difluoroethyl)-N-(5-ethoxy-2′-methyl-6-morpholino-[2,3′-bipyridin]-5′-yl)isonicotinamide]",4.11
14,"Cc1ncc(NC(=O)c2cccc(C(F)(F)F)c2)cc1-c1cnc(OC2CCS(=O)(=O)CC2)c(N2CCOCC2)c1 [Example 1034, N-(6′-((1,1-dioxidotetrahydro-2H-thiopyran-4-yl)oxy)-2-methyl-5′-morpholino-[3,3′-bipyridin]-5-yl)-3-(trifluoromethyl)benzamide]",1.59
15,"Cc1ccc(NC(=O)c2ccnc(C(C)(F)F)c2)cc1-c1cc(NCCO)nc(N2CCOCC2)c1 [Example 1037, 2-(1,1-difluoroethyl)-N-(3-(2-((2-hydroxyethyl)amino)-6-morpholinopyridin-4-yl)-4-methylphenyl)isonicotinamide]",1.07
16,"Cc1ncc(NC(=O)c2ccnc(C(F)(F)F)c2)cc1-c1cc(NCCO)nc(N2CCOCC2)c1 [Example 1040, N-(2′-((2-hydroxyethyl)amino)-2-methyl-6′-morpholino-[3,4′-bipyridin]-5-yl)-2-(trifluoromethyl)isonicotinamide]",4.35
17,"Cc1ncc(NC(=O)c2ccnc(C(C)(F)F)c2)cc1-c1cc(NCCO)nc(N2CCOCC2)c1 [Example 1041, 2-(1,1-difluoroethyl)-N-(2′-((2-hydroxyethyl)amino)-2-methyl-6′-morpholino-[3,4′-bipyridin]-5-yl)isonicotinamide]",5.72
18,"Cc1ncc(NC(=O)c2ccnc(S(C)(=O)=O)c2)cc1-c1cc(NCCO)nc(N2CCOCC2)c1 [Example 1043, N-(2′-((2-hydroxyethyl)amino)-2-methyl-6′-morpholino-[3,4′-bipyridin]-5-yl)-2-(methylsulfonyl)isonicotinamide]",22.8

# The next lines start with the values.
row,IC50 [nM],SMILES
1,83.6,"Cc1ncc(NC(=O)c2cnnc(C(F)(F)F)c2)cc1-c1cc(NCCO)nc(N2CCOCC2)c1F [Example 1004, N-(3′-fluoro-6′-((2-hydroxyethyl)amino)-2-methyl-2′-morpholino-[3,4′-bipyridin]-5-yl)-6-(trifluoromethyl)pyridazine-4-carboxamide]"
2,5.38,"Cc1ccc(NC(=O)c2cnnc(C(F)(F)F)c2)cc1-c1cc(N2CCOCC2)nc(NCCO)c1F [Example 1007, N-(3-(3-fluoro-2-((2-hydroxyethyl)amino)-6-morpholinopyridin-4-yl)-4-methylphenyl)-6-(trifluoromethyl)pyridazine-4-carboxamide]"
3,13.3,"Cc1ccc(NC(=O)c2ccnc(C(F)(F)F)c2)cc1-c1cc(NCCO)nc(N2CCOCC2)c1F [Example 1008, N-(3-(3-fluoro-6-((2-hydroxyethyl)amino)-2-morpholinopyridin-4-yl)-4-methylphenyl)-2-(trifluoromethyl)isonicotinamide]"
4,70.6,"Cc1ccc(NC(=O)c2cnnc(C(C)(C)C#N)c2)cc1-c1cc(NCCO)nc(N2CCOCC2)c1F [Example 1012, 6-(2-cyanopropan-2-yl)-N-(3-(3-fluoro-6-((2-hydroxyethyl)amino)-2-morpholinopyridin-4-yl)-4-methylphenyl)pyridazine-4-carboxamide]"
5,12.8,"Cc1ccc(NC(=O)c2ccnc(C(F)(F)F)c2)cc1-c1c(F)c(NCCO)nc(N2CCOCC2)c1F [Example 1014, N-(3-(3,5-difluoro-2-((2-hydroxyethyl)amino)-6-morpholinopyridin-4-yl)-4-methylphenyl)-2-(trifluoromethyl)isonicotinamide]"
6,0.98,"COc1nnc(-c2cc(C(=O)Nc3ccnc(C(F)(F)F)c3)ccc2C)cc1N1CCOCC1 [Example 1017, 3-(6-methoxy-5-morpholinopyridazin-3-yl)-4-methyl-N-(2-(trifluoromethyl)pyridin-4-yl)benzamide]"
7,1.76,COc1nnc(-c2cc(C(=O)Nc3ccnc(C(F)(F)F)c3)ccc2C)cc1N1CCOCC1 [Example 1018]
8,12.7,"Cc1ccc(NC(=O)c2ccnc(C(C)(C)F)c2)cc1-c1cc(NC[C@@H](C)O)nc(N2CCOCC2)n1 [Example 1025, (R)-2-(2-fluoropropan-2-yl)-N-(3-(6-((2-hydroxypropyl)amino)-2-morpholinopyrimidin-4-yl)-4-methylphenyl)isonicotinamide]"
9,0.54,"Cc1ccc(NC(=O)c2cccc(C(F)F)c2)cc1-c1cc(NCCO)nc(N2CCOCC2)c1 [Example 1036, 3-(difluoromethyl)-N-(3-(2-((2-hydroxyethyl)amino)-6-morpholinopyridin-4-yl)-4-methylphenyl)benzamide]"
10,2.86,"Cc1ncc(NC(=O)c2cccc(C(F)F)c2)cc1-c1cc(NCCO)nc(N2CCOCC2)c1 [Example 1038, 3-(difluoromethyl)-N-(2′-((2-hydroxyethyl)amino)-2-methyl-6′-morpholino-[3,4′-bipyridin]-5-yl)benzamide]"
11,5.04,"Cc1ncc(NC(=O)c2ccnc(C(F)F)c2)cc1-c1cc(NCCO)nc(N2CCOCC2)c1 [Example 1039, 2-(difluoromethyl)-N-(2′-((2-hydroxyethyl)amino)-2-methyl-6′-morpholino-[3,4′-bipyridin]-5-yl)isonicotinamide]"
12,40.6,"Cc1ncc(NC(=O)c2ccnc(C(C)(C)C#N)c2)cc1-c1cc(NCCO)nc(N2CCOCC2)c1 [Example 1042, 2-(2-cyanopropan-2-yl)-N-(2′-((2-hydroxyethyl)amino)-2-methyl-6′-morpholino-[3,4′-bipyridin]-5-yl)isonicotinamide]"
13,30.6,"CCn1cc(C(=O)Nc2cnc(C)c(-c3cc(NCCO)nc(N4CCOCC4)c3)c2)cc(C(F)(F)F)c1=O [Example 1044, 1-ethyl-N-(2′-((2-hydroxyethyl)amino)-2-methyl-6′-morpholino-[3,4′-bipyridin]-5-yl)-6-oxo-5-(trifluoromethyl)-1,6-dihydropyridine-3-carboxamide]"
14,32.9,"CCN1CCN(c2cc(C(=O)Nc3cnc(C)c(-c4cc(NCCO)nc(N5CCOCC5)c4)c3)cc(C(F)(F)F)c2)CC1 [Example 1045, 3-(4-ethylpiperazin-1-yl)-N-(2′-((2-hydroxyethyl)amino)-2-methyl-6′-morpholino-[3,4′-bipyridin]-5-yl)-5-(trifluoromethyl)benzamide]"
